In patent US20190322676A1, “CERAMIDE GALACTOSYLTRANSFERASE INHIBITORS FOR THE TREATMENT OF DISEASE” (BioMarin Pharmaceutical Inc., priority 2016, published 2019):
Structures can show the parent of a compound that is named as a salt.

Each compound was assayed against T1, human CGT (ceramide galactosyltransferase), CHO/CGT lysate (Homo sapiens, UniProt Q16880) (assay: CGT enzyme assay, RapidFire/MS/MS readout with 0.01% Tween added (Table 1 ranges with two asterisks **)). Conditions: CGT enzymatic assay; range with two asterisks (**): RapidFire/MS/MS method with 0.01% Tween added.
T1 construct: Full-length human CGT cDNA was cloned into the BamH1/Xho1 site of pcDNA3.1 (+); expressed in transfected cells; host or cells: Chinese hamster ovary (CHO) cells; lysate prepared with M-PER
T1 sequence (Q16880 21-541): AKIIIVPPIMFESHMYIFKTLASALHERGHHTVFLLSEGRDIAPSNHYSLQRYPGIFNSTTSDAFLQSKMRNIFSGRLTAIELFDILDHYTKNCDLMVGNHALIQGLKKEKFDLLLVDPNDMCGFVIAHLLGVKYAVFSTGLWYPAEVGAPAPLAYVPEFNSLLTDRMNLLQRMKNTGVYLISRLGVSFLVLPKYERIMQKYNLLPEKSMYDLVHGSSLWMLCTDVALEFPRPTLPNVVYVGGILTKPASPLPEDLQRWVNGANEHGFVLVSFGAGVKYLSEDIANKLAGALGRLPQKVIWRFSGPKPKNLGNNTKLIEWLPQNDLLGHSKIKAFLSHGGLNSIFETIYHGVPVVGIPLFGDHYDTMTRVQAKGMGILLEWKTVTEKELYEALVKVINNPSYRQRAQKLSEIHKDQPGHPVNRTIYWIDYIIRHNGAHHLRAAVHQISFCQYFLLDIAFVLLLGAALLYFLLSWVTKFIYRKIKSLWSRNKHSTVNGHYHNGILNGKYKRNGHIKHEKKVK
Assay type: biochemical
Protocol: Full-length human CGT cDNA was cloned into the BamH1/Xho1 site of pcDNA3.1 (+) mammalian expression vector (V90-20, Invitrogen, Carlsbad, Calif.) and the plasmid was transfected into Chinese hamster ovary (CHO) cells. Lysate was prepared using M-PER (Mammalian Protein Extraction Reagent, ThermoFisher Scientific, Grand Island, N.Y.) in the presence of a protease inhibitor cocktail (P8340, Sigma, Saint Louis, Mo.). Each 100 mm dish (100% confluent, approximately 1×10^7 cells) was lysed with 250 μL of M-PER containing protease inhibitors. Protein concentration was determined using a Pierce BCA protein assay kit (ThermoFisher Scientific). Four micrograms of CHO/CGT lysate was incubated with various concentrations of a compound (0.001 μM-50 μM) in 10 mM HEPES (pH 7.2) containing 35 μM dioleoylphosphatidylcholine, 5 mM MgCl2, 5 mM MnCl2, 1% BSA, 15 mM KCl, 1 mM EGTA, 8 mM CHAPS, 10 μM C6-NBD-dihydro-ceramide and 17.5 μM UDP-galactose in a final reaction volume of 20 μL at 37° C. for 1 hour. The final concentration of DMSO was 0.5% in both compound-treated and mock-treated samples. Tween 80 (0.01%) was optionally added to the reaction mixture to help solubilize the compounds. Each individual reaction was diluted with 80 μL of methanol:acetronitrile (1:3) containing 5 μM N-docdecanoyl-NBD-galactosylceramide (internal standard) to stop the reaction. 200 μL H2O:acetonitile (1:1) was added to precipitate the protein. After sufficient mixing, the plates were centrifuged at 2469 g for 38 minutes, 200 μL of supernatant was transferred to a LC/MS 96-deep well plate and a second spin was performed at 2469 g for 10 minutes. The final supernatant was injected in triplicate for RapidFire/MS/MS analysis.
Quantitative Analysis Using the RapidFire/MS/MS Method:
The quantitative analysis of C6-NBD-dihydro-ceramide and C6-NBD-dihydro-galactosylceramide was performed on a Rapid Fire 360 high-throughput mass spectrometry system (Agilent Technologies, Palo Alto, Calif.) coupled with a API4000^+ triple quadrupole mass spectrometer (Applied Biosystems, Concord, Ontario, Canada). RapidFire software packages, including RapidFire Control panel, RapidFire UI and RapidFire Integrator (Agilent Technologies), were used to control the RapidFire instrument and to process data. Analyst 1.6.2 software packages (Applied Biosystems) were used to control the MS system and acquire MS data. […] of sample was loaded on a micro-scale C4 solid-phase extraction (SPE) cartridge (Agilent Technologies) and salts were removed using water supplemented with 0.1% formic acid at the flow rate of 1.5 mL/min for 3 sec. C6-NBD-dihydro-ceramide and C6-NBD-dihydro-galactosylceramide were co-eluted into the mass spectrometer using acetonitrile containing 0.1% formic acid at the flow rate of 1.0 mL/min for 3 sec. The total cycle time of one injection was 8 secs. The MS/MS detection was performed in ESI negative mode. The mass transition of C6-NBD-dihydro-galactosylceramide was m/z 752.6→678.6 using a −40 V collision energy, the mass transition of C6-NBD-dihydro-ceramide was m/z 590.6→115.8 using a −40 V collision energy and the mass transition of N-docdecanoyl-NBD-galactosylceramide was m/z 820.9→746.3 using a −45 V collision energy.
The C6-NBD-dihydro-galactosylceramide reading was normalized first by dividing the peak area of C6-NBD-dihydro-galactosylceramide by the peak area of the internal standard, N-docdecanoyl-NBD-galactosylceramide. IC50 values (see Table 1, where data ranges with one asterix (*) correspond to analysis using the RapidFire/MS/MS method, and data ranges with two asterixes (**) correspond to analysis using the RapidFire/MS/MS method with 0.01% Tween added) were generated from sigmoidal dose-response curves (variable slope) with GraphPad Prism software (GraphPad Software, Inc., San Diego, Calif.) using the normalized peak areas of C6-NBD-dihydro-galactosylceramide or the percent inhibition of C6-NBD-dihydro-galactosylceramide accumulation relative to DMSO control. […]
For `O=C([C@@H](NS(=O)(=O)c1ccc2cc(OC3CCCC3)ccc2c1)C(F)(F)c1ccc(-c2ccc(Cl)cc2)cc1)N1CC[C@H]2CNC[C@H]21` [Compound 192-1, N-((R)-1-(4′-chloro-[1,1′-biphenyl]-4-yl)-1,1-difluoro-3-((3aS,6aS)-hexahydropyrrolo[3,4-b]pyrrol-1(2H)-yl)-3-oxopropan-2-yl)-6-(cyclopentyloxy)naphthalene-2-sulfonamide], the IC50 was 1 to 10 µM. `NC1CCN(C(=O)[C@H](NC(=O)[C@H](O)c2ccc3cc(OC4CCCC4)ccc3c2)C(F)(F)c2ccc(-c3ccc(Cl)cc3)cc2)CC1` [Compound 159-4, (R)—N—((S)-3-(4-aminopiperidin-1-yl)-1-(4′-chloro-[1,1′-biphenyl]-4-yl)-1,1-difluoro-3-oxopropan-2-yl)-2-(6-(cyclopentyloxy)naphthalen-2-yl)-2-hydroxyacetamide trifluoroacetate] was tested, and the IC50 was 30 to 100 µM. Compound `N[C@@H]1CCN(C(=O)[C@@H](NS(=O)(=O)c2ccc(OCC3CCCCC3)cc2)C(F)(F)c2ccc(Cl)cc2)C1` [Compound 189-1, N-((R)-3-((R)-3-aminopyrrolidin-1-yl)-1-(4-chlorophenyl)-1,1-difluoro-3-oxopropan-2-yl)-4-(cyclohexylmethoxy)benzenesulfonamide] has an IC50 of 1 to 10 µM. `NC1CCN(C(=O)[C@@H](NS(=O)(=O)c2ccc(COC3CCCCC3)s2)C(F)(F)c2ccc(-c3ccc(Cl)cc3)cc2)CC1` [Compound 165-2, (R)—N-(3-(4-aminopiperidin-1-yl)-1-(4′-chloro-[1,1′-biphenyl]-4-yl)-1,1-difluoro-3-oxopropan-2-yl)-5-((cyclohexyloxy)methyl)thiophene-2-sulfonamide trifluoroacetate] was tested, and the IC50 was 30 to 100 µM. With `N[C@H]1[C@@H]2CC[C@H]1CN(C(=O)[C@@H](NS(=O)(=O)c1ccc3cc(OC4CCCC4)ccc3c1)C(F)(F)c1ccc(-c3ccc(Cl)cc3)cc1)C2` [Compound 184-1, N-((R)-3-((1R,5S,8R)-8-amino-3-azabicyclo[3.2.1]octan-3-yl)-1-(4′-chloro-[1,1′-biphenyl]-4-yl)-1,1-difluoro-3-oxopropan-2-yl)-6-(cyclopentyloxy)naphthalene-2-sulfonamide] the IC50 was 1 to 10 µM. `NC1CCN(C(=O)[C@@H](NS(=O)(=O)c2ccc(OCC3CCCCC3)cc2)C(F)(F)c2ccc(-c3ccccc3)cc2)CC1` [Compound 156-1, (R)—N-(1-([1,1′-biphenyl]-4-yl)-3-(4-aminopiperidin-1-yl)-1,1-difluoro-3-oxopropan-2-yl)-4-(cyclohexylmethoxy)benzenesulfonamide trifluoroacetate] was tested, and the IC50 was 1 to 10 µM. `NC1CCN(C(=O)[C@H](NS(=O)(=O)c2ccc3cc(OC4CCCC4)ccc3c2)C(F)(F)c2ccc(Cl)c(OC3CC3)c2)CC1` [Compound 168-2, (S)—N-(3-(4-aminopiperidin-1-yl)-1-(4-chloro-3-cyclopropoxyphenyl)-1,1-difluoro-3-oxopropan-2-yl)-6-(cyclopentyloxy) naphthalene-2-sulfonamide trifluoroacetate] gave an IC50 of 10 to 30 µM. `CCOc1cc(-c2ccc(C(F)(F)[C@@H](NS(=O)(=O)c3ccc4cc(OC5CCCC5)ccc4c3)C(=O)N3CCC(N)CC3)cc2)ccc1Cl` [Compound 154-2, (S)—N-(3-(4-aminopiperidin-1-yl)-1-(4′-chloro-3′-ethoxy-[1,1′-biphenyl]-4-yl)-1,1-difluoro-3-oxopropan-2-yl)-6-(cyclopentyloxy)naphthalene-2-sulfonamide trifluoroacetate] gave an IC50 of 1 to 10 µM. With `NC1CCN(C(=O)[C@H](NS(=O)(=O)c2ccc3cc(OC4CCCC4)ccc3c2)C(F)(F)c2ccc(-c3ccc(Cl)cc3)cn2)CC1` [Compound 162-2, (S)—N-(3-(4-aminopiperidin-1-yl)-1-(5-(4-chlorophenyl)pyridin-2-yl)-1,1-difluoro-3-oxopropan-2-yl)-6-(cyclopentyloxy)naphthalene-2-sulfonamide] the IC50 was 10 to 30 µM. With `NC1CC2CCC(C1)N2C(=O)[C@H](NC(=O)[C@@H](O)c1ccc2cc(OC3CCCC3)ccc2c1)C(F)(F)c1ccc2cc(Br)ccc2c1` (stereo partly drawn) [Compound 158-2, (2S)—N-((2 S)-3-(3-amino-8-azabicyclo[3.2.1]octan-8-yl)-1-(6-bromonaphthalen-2-yl)-1,1-difluoro-3-oxopropan-2-yl)-2-(6-(cyclopentyloxy)naphthalen-2-yl)-2-hydroxyacetamide trifluoroacetate] the IC50 was 30 to 100 µM. Compound `NC1C2CCC1CN(C(=O)[C@H](NS(=O)(=O)c1ccc(OCC3CCCCC3)cc1)C(F)(F)c1ccc(-c3ccc(Cl)cc3)cc1)C2` (stereo partly drawn) [Compound 183-2, N-((S)-3-((1R,5S,8S)-8-amino-3-azabicyclo[3.2.1]octan-3-yl)-1-(4′-chloro-[1,1′-biphenyl]-4-yl)-1,1-difluoro-3-oxopropan-2-yl)-4-(cyclohexylmethoxy)benzenesulfonamide] has an IC50 of 1 to 10 µM. With `N[C@H]1[C@@H]2CC[C@H]1CN(C(=O)[C@H](NS(=O)(=O)c1ccc3cc(OC4CCCC4)ccc3c1)C(F)(F)c1ccc(-c3ccc(Cl)cc3)cc1)C2` [Compound 184-2, N-((S)-3-((1R,5S,8S)-8-amino-3-azabicyclo[3.2.1]octan-3-yl)-1-(4′-chloro-[1,1′-biphenyl]-4-yl)-1,1-difluoro-3-oxopropan-2-yl)-6-(cyclopentyloxy)naphthalene-2-sulfonamide] the IC50 was 1 to 10 µM. Work on `N[C@@H]1CCN(C(=O)[C@@H](NS(=O)(=O)c2ccc3cc(OC4CCCC4)ccc3c2)C(F)(F)c2ccc(-c3ccc(Cl)cc3)cc2)C1` [Compound 149-1, N—((R)-3-((R)-3-aminopyrrolidin-1-yl)-1-(4′-chloro-[1,1′-biphenyl]-4-yl)-1,1-difluoro-3-oxopropan-2-yl)-6-(cyclopentyloxy)naphthalene-2-sulfonamide trifluoroacetate] yielded an IC50 of under 1 µM.

Same assay, conditions: CGT enzyme assay, RapidFire/MS/MS method with 0.01% Tween added (range with two asterisks **)
`COc1cc(C(F)(F)[C@@H](NS(=O)(=O)c2ccc3cc(OC4CCCC4)ccc3c2)C(=O)N2CCC(N)CC2)ccc1Br` [Compound 143-2, (S)—N-(3-(4-aminopiperidin-1-yl)-1-(4-bromo-3-methoxyphenyl)-1,1-difluoro-3-oxopropan-2-yl)-6-(cyclopentyloxy) naphthalene-2-sulfonamide trifluoroacetate] showed an IC50 of 1 to 10 µM. `COc1cc(C(F)(F)[C@H](NS(=O)(=O)c2ccc3cc(OC4CCCC4)ccc3c2)C(=O)N2CCC(N)CC2)ccc1-c1ccc(Cl)cc1` [Compound 144-1, (R)—N-(3-(4-aminopiperidin-1-yl)-1-(4′-chloro-2-methoxy-[1,1′-biphenyl]-4-yl)-1,1-difluoro-3-oxopropan-2-yl)-6-(cyclopentyloxy)naphthalene-2-sulfonamide trifluoroacetate] gave an IC50 of under 1 µM.
